Experimental findings from ChEMBL document CHEMBL3351638, “Discovery of 6-[5-(4-fluorophenyl)-3-methyl-pyrazol-4-yl]-benzoxazin-3-one derivatives as novel selective nonsteroidal mineralocorticoid receptor antagonists” (Bioorg Med Chem, 2014) are described below.

Data set [1] can be described thus: Mean residence time in Sprague-Dawley rat at 3 mg/kg, po. The arrangement: dose 3 mg/kg, route oral. The following applies: in vivo. Format: ADME, organism-based.
Data set [2] is described as follows: Oral bioavailability in Sprague-Dawley rat at 3 mg/kg. Format: ADME, organism-based. Particulars: in vivo.
Data set [3] deals with T1, Mineralocorticoid receptor (Homo sapiens, UniProt P08235).
T1 sequence (P08235 whole entry): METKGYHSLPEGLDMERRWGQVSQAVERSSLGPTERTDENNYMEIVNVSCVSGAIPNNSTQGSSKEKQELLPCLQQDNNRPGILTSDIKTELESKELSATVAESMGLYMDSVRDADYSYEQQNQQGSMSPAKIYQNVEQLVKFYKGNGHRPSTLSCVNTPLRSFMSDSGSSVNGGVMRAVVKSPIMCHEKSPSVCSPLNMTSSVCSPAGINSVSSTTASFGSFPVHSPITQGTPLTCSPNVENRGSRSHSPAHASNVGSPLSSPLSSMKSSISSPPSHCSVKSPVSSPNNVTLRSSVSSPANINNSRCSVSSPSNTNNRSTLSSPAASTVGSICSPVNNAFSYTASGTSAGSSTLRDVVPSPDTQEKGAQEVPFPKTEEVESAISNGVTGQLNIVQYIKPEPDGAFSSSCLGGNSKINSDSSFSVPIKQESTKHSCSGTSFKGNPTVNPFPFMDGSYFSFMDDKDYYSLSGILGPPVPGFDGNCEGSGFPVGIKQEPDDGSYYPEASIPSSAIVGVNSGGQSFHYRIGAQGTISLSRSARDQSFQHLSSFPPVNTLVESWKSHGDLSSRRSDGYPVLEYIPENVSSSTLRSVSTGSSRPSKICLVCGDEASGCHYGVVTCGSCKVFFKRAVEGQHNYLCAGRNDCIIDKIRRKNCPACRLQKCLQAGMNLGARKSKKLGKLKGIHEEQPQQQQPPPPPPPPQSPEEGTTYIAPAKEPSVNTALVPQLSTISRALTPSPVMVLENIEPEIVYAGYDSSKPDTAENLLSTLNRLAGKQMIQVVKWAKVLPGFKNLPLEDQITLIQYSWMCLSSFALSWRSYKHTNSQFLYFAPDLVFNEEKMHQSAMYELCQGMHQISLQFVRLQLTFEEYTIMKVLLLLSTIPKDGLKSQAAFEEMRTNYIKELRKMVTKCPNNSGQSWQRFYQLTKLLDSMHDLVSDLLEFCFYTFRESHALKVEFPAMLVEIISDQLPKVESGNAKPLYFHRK
Description: Antagonist activity at human mineralocorticoid receptor expressed in COS1 cells after 1 day by luciferase reporter gene assay

The target in data set [4] is T2, Androgen receptor (Homo sapiens, UniProt P10275).
T2 sequence (P10275 whole entry): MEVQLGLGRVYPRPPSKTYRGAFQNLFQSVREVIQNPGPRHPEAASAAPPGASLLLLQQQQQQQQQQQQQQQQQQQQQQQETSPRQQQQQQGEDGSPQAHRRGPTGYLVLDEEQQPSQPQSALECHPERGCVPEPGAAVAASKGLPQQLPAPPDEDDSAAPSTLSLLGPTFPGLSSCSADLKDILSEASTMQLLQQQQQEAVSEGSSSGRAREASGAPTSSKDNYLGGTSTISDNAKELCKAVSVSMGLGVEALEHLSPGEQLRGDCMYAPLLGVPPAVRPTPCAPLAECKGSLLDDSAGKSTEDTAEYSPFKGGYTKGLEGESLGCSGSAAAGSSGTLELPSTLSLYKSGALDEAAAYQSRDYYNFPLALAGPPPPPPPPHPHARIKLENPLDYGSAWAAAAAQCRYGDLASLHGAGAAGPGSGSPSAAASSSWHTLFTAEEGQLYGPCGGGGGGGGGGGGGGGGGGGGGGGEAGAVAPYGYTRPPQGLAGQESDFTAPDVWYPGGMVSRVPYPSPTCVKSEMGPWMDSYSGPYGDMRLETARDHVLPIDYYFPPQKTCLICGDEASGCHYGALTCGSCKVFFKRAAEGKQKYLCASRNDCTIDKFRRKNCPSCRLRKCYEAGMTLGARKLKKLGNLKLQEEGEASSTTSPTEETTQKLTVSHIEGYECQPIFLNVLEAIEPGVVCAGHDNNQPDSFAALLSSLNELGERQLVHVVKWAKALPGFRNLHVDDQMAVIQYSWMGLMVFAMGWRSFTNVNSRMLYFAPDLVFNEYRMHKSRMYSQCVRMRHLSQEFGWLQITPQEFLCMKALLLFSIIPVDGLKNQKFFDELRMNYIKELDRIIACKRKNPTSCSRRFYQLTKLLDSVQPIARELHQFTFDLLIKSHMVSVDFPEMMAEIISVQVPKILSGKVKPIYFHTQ
Description: biochemical.
Description: Displacement of [3H]testosterone from androgen receptor (unknown origin) expressed in 293 cells after 16 hrs by scintillation counting

Data set [5] relates to Rattus norvegicus. Kind of data set: Toxicity in DOCA-salt hypertensive Wistar rat model assessed as change in heart rate at 100 mg/kg, po qd for 18 days measured 24 hrs post 7th and 14th last dose by tail-cuff method. The following applies: in vivo. The arrangement: dose 100 mg/kg, route oral. It is filed as organism-based.
A short description of data set [6]: Volume of distribution at steady state in Sprague-Dawley rat at 1 mg/kg, iv. The arrangement: dose 1 mg/kg, route intravenous. Format: ADME, organism-based. Particulars: in vivo, read-out: Vdss.
Data set [7] can be described thus: Clearance in Sprague-Dawley rat at 1 mg/kg, iv. It is filed as ADME, organism-based. The arrangement: dose 1 mg/kg, route intravenous. Particulars: in vivo.
A short description of data set [8]: Lipophilicity, log D of the compound at pH 7.4 by HPLC analysis. It is filed as physicochemical. Particulars: buffer.
Data set [9] can be described thus: AUC (0 to 24 hrs) in Sprague-Dawley rat at 3 mg/kg, po. Particulars: plasma. The arrangement: time < 24 hr, dose 3 mg/kg, route oral. It is filed as ADME, organism-based.
Data set [10] addresses T1, Mineralocorticoid receptor. Description: biochemical.
Description: Displacement of [3H]aldosterone from human mineralocorticoid receptor expressed in 293 cells after 16 hrs by scintillation counting
The target in data set [11] is Glucocorticoid receptor (Homo sapiens, UniProt P04150). Kind of data set: biochemical.
Sequence of Glucocorticoid receptor (P04150 whole entry, looked up): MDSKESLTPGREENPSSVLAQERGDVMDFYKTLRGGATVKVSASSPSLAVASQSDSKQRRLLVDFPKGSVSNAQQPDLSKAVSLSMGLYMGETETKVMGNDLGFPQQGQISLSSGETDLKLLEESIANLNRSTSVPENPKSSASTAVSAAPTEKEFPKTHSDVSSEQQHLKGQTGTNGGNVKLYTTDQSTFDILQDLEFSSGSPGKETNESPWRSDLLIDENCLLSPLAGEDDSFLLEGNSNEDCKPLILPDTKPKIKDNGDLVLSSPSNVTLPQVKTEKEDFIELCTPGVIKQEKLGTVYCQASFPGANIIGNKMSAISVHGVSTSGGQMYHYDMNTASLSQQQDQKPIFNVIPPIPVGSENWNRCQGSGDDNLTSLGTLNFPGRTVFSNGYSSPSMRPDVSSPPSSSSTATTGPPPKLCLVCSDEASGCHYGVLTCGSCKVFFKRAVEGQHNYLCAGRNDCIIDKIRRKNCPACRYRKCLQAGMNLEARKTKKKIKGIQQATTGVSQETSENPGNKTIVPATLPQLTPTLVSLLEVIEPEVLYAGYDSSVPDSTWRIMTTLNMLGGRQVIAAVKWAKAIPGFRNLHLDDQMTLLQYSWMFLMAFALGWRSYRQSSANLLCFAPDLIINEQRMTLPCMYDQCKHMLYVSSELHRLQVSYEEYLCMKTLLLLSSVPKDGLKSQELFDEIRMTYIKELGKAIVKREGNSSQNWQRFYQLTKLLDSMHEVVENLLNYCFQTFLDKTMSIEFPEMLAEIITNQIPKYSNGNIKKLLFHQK
Description: Displacement of [3H]-Dexamethasone from glucocorticoid receptor (unknown origin) expressed in 293 cells after 16 hrs by scintillation counting
Data set [12] concerns the target T3, Progesterone receptor (Homo sapiens, UniProt P06401).
T3 sequence (P06401 whole entry): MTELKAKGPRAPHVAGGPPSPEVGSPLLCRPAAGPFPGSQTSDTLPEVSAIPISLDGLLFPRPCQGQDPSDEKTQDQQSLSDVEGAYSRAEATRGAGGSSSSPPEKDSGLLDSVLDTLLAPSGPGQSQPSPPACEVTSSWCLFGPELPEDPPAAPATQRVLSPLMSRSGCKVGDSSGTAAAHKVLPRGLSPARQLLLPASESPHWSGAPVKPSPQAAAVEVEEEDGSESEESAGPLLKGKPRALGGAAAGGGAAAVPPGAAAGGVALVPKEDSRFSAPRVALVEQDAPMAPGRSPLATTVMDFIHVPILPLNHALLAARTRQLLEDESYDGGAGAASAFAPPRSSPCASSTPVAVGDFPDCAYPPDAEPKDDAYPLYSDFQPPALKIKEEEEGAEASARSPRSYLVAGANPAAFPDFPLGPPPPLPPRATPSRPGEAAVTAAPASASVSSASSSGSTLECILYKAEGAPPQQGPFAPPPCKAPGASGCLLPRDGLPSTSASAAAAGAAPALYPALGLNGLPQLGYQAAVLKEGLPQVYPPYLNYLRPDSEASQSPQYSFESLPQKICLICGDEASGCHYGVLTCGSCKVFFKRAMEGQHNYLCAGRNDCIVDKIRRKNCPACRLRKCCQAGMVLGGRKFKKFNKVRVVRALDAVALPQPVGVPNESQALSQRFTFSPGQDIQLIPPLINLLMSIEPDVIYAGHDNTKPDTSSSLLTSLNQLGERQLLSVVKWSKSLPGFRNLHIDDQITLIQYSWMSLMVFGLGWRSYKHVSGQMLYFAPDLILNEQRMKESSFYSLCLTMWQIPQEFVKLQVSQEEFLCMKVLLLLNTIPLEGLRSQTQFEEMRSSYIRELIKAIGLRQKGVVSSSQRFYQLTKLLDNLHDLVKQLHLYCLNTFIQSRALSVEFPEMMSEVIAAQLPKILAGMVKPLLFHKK
Description: Displacement of [[3H]-Progesterone from progesterone receptor (unknown origin) expressed in 293 cells after 16 hrs by scintillation counting. Format: cell-based.

The test system of data set [13] is Rattus norvegicus. Description: Toxicity in DOCA-salt hypertensive Wistar rat model assessed as change in seminal vesicle weight at 100 mg/kg, po qd for 18 days measured 24 hrs post 7th and 14th last dose […]. Format: organism-based. The arrangement: dose 100 mg/kg, route oral. Particulars: in vivo.
Data set [14] can be described thus: Metabolic stability in rat hepatic microsomes at 1 umol/L pre-incubated fro 5 mins at 37 degC before addition of NADPH-generating system by UV detection based HPLC method. The following applies: liver microsomes, read-out: CLH. It is filed as ADME.

pIC50: −log10 of the molar value. Some results are limits rather than exact numbers.

For the compound `Cc1nn(CC(F)(F)CO)c(-c2ccc(F)cc2)c1-c1ccc2c(c1)NC(=O)CO2`, the mean residence time (MRT) in data set [1] worked out at 3.77 h. For the same compound, the bioavailability in [2] is 21.4%. For the same compound, the pIC50 is 7.15 in data set [3]; below 5.00 in data set [4]; 7.29 in data set [10]; 5.62 in data set [11]; below 5.00 in data set [12]. Besides, the Activity entry in data set [5] and in [13] was “Non-toxic” in each case. The Vd in data set [6] is 1.36 L/kg. The clearance in data set [7] is 16.5 mL/min/kg. This compound came in with a logD in data set [8] of 2.05. In data set [9], the AUC(0-t) at 24 h stood at 662 ng·h/mL. Further, in [14], the microsomal CLint at 1 µM is above 42 µL/min/mg.
For the compound `CC(=O)S[C@@H]1CC2=CC(=O)CC[C@]2(C)[C@H]2CC[C@@]3(C)[C@@H](CC[C@@]34CCC(=O)O4)[C@H]12` [SPIRONOLACTONE], the Activity entry in [5] is reported as “Non-toxic”; in data set [13] it was “Toxic”.
Turning to `Cc1nn(Cc2cccnc2)c(-c2ccc(F)cc2)c1-c1ccc2c(c1)NC(=O)CO2`, the pIC50 in data set [3] is 7.44; in data set [4], below 5.00; in [10], 7.44; in data set [11], 5.77; in data set [12], below 5.00. This compound gave a logD in [8] of 2.22. For the same compound, in [14], the microsomal CLint at 1 µM was above 200 µL/min/mg.
Consider `Cc1nn(CCCCO)c(-c2ccc(F)cc2)c1-c1ccc2c(c1)NC(=O)CO2`, for which the pIC50 in data set [3] is 6.89; in data set [4], below 5.00; in data set [10], 7.12; in data set [11], 5.27; in [12] it was below 5.00. In data set [8], this compound registered a logD of 2.16.
For the compound `Cc1nn(Cc2ccccn2)c(-c2ccc(F)cc2)c1-c1ccc2c(c1)NC(=O)CO2`, the pIC50 in data set [3] was 6.00; in data set [4], below 5.00; in [10], 5.55; in data set [11], below 5.00; in [12], below 5.00. Also, in [8], the log distribution coefficient (logD) was 2.45.

As a reminder, the MRT is the average time that molecules of a dose stay in the body. As a reminder, the bioavailability is the share of a dose that reaches the circulation, judged against a reference dose that is usually intravenous. A higher bioavailability goes with good availability. One may read the pIC50 as −log10 of the IC50, conventionally taken in molar units. Lower therefore signals a high IC50. For orientation: clearance means the volume of plasma or blood freed of the substance per unit of time. Read a high clearance as a high capacity for elimination. Usually logD stands for the decadic logarithm of the distribution of all forms, ionised or not, between an organic phase and buffer at a given pH. Broadly, the AUC(0-t) is exposure summed from dosing to a finite time, without extrapolation to infinity.
